ChEMBL document CHEMBL4364293, “Design, Synthesis, and Structure-Activity Relationship of 7-Propanamide Benzoxaboroles as Potent Anticancer Agents” (J Med Chem, 2019)

Key:
HCT-116 = experiment: Antiproliferative activity against human HCT116 cells after 72 hrs by MTT assay; format: functional, cell-based; details: HCT-116, 72 h
SK-OV-3 = experiment: Antiproliferative activity against human SKOV3 cells after 72 hrs by MTT assay; format: functional, cell-based; details: SK-OV-3, 72 h
MDA-MB-231 = experiment: Antiproliferative activity against human MDA-MB-231 cells after 72 hrs by MTT assay; format: functional, cell-based; details: MDA-MB-231, 72 h
WI-38 = experiment: Cytotoxicity against human WI38 cells after 72 hrs by MTT assay; format: cell-based; details: WI-38, 72 h

Compound	IC50 (HCT-116) [nM]	IC50 (SK-OV-3) [nM]	IC50 (MDA-MB-231) [nM]	IC50 (WI-38) [nM]
O=C(CCc1cccc2c1B(O)OC2)Nc1cccc(Br)c1	1400	540	720	20000
N#Cc1cccc(-c2cccc(NC(=O)CCc3cccc4c3B(O)OC4)c2)c1	140	120	110	7300
O=C(CCc1cccc2c1B(O)OC2)NCc1ccccc1	> 100000	> 100000	> 100000	> 100000
CC(=O)c1ccc(-c2cccc(NC(=O)CCc3cccc4c3COB4O)c2)cc1	48000	57000	41000	> 100000
COc1cccc(-c2cccc(NC(=O)CCc3ccc4c(c3)B(O)OC4)c2)c1	21000	62000	49000	> 100000
O=C(CCc1cccc2c1B(O)OC2)Nc1cccc(-c2ccc(C(F)(F)F)cc2)c1	550	500	510	26000
C#Cc1ccccc1NC(=O)CCc1cccc2c1B(O)OC2	1400	820	1300	18000
O=C(CCc1cccc2c1B(O)OC2)Nc1cccc(-c2ccccc2)c1	890	250	220	12000
O=C(CCc1cccc2c1B(O)OC2)Nc1ccc(F)cc1	650	720	440	12000
COc1cccc(-c2cccc(NC(=O)CCc3ccc4c(c3)COB4O)c2)c1	81000	> 100000	90000	> 100000
CC(=O)c1ccc(-c2cccc(NC(=O)CCc3cccc4c3C(O)OC4)c2)cc1 (stereo not given)	18000	41000	29000	> 100000
CSc1ccc(-c2cccc(NC(=O)CCc3cccc4c3B(O)OC4)c2)cc1	180	140	140	3800
COc1ccc(NC(=O)CCc2cccc3c2B(O)OC3)cc1	1700	900	850	> 100000
O=C(O)CCc1cccc2c1B(O)OC2	> 100000	> 100000	> 100000	> 100000
COc1cc(OC)cc(-c2cccc(NC(=O)CCc3cccc4c3B(O)OC4)c2)c1	53	44	40	1700
O=C(CCc1cccc2c1B(O)OC2)Nc1cccc(-c2ccc(OC(F)(F)F)cc2)c1	730	560	640	25000
Cc1ccc(NC(=O)CCc2cccc3c2B(O)OC3)cc1	4500	860	1100	> 100000
COc1cc(OC)cc(-c2cccc(NC(=O)CCc3cccc4c3COB4O)c2)c1	50000	88000	93000	> 100000
COc1ccc(-c2cccc(NC(=O)CCc3cccc4c3B(O)OC4)c2)cc1	160	48	88	1400
O=C(CCc1ccccc1)Nc1ccccc1	> 100000	> 100000	> 100000	> 100000
O=C(CCc1cccc2c1B(O)OC2)NCCc1ccccc1	> 100000	> 100000	> 100000	> 100000
OB1OCc2cc(F)ccc21 [TAVABOROLE]	65000	> 100000	> 100000	32000
C#Cc1cccc(NC(=O)CCc2cccc3c2B(O)OC3)c1	3600	980	1600	> 100000
CC(=O)c1cccc(-c2cccc(NC(=O)CCc3cccc4c3B(O)OC4)c2)c1	86	68	52	2200
O=C(CCc1cccc2c1B(O)OC2)Nc1cccc(-c2cccc(F)c2)c1	460	480	570	37000
N#Cc1ccc(-c2cccc(NC(=O)CCc3cccc4c3B(O)OC4)c2)cc1	410	340	380	12000
O=C(CCc1cccc2c1B(O)OC2)Nc1ccc2ccccc2c1	1700	1400	1800	> 100000
O=C(CCc1cccc2c1B(O)OC2)Nc1ccccc1-c1ccccc1	23000	26000	18000	77000
Cc1ccc(NC(=O)CCc2cccc3c2B(O)OC3)cc1Br	1200	600	870	15000
COc1cc(OC)cc(-c2cccc(NC(=O)CCc3ccc4c(c3)COB4O)c2)c1	56000	93000	77000	> 100000
